Data on two compounds can be found in patent US8815305B2, “Composition containing a plant extract and process for producing same” (BASF Beauty Care Solutions France S.A.S., priority 2003, dated 2014).

Series [1] in a line: Toxicity tests and growth tests on human fibroblasts (cellular proteins, Bradford). The class given is cell-based. Particulars: human.
For series [2], the system named is human fibroblasts. The series is described as above. In kind it is cell-based.
Series [3] concerns human fibroblasts. Nature of the series: Survival efficacy test on human fibroblasts (DNA, ATP, proteins, GSH). To be noted: for ATP / DNA / GSH/proteins / Proteins: quiescent fibroblasts, 3 days. The class given is cell-based. The method, then: Human fibroblasts were inoculated in a standard medium of a cell culture with foetal calf serum (FCS). After an incubation of 3 days the cells became quiescent, then the growth medium was exchanged for a standard medium with a range of concentrations for each ingredient to be tested. After an incubation of 3 days, the number of viable cells was determined by evaluation of the levels of and the rates of cellular DNA (fluorescent probe), ATP (enzymatic method), proteins (Bradford's method) and GSH which is evaluated according to the method of Hissin (Hissin P. J., Hilf R. A, fluorometric method for determination of oxidised and reduced Glutathione in tissues. Analytical Biochemistry (1977) volume 74, pages 214-226).

In series [4] the test system is human fibroblasts. Nature of the series: Cytophotoprotection of human fibroblasts against UV-A radiation. The class given is cell-based. The method, then:
The cytoprotection against UV-A radiation was evaluated by a test on human fibroblasts because UV-A radiation penetrates through the epidermis until the derma where it induces oxidative stress (DALLE CARBONARE M, PATHAK M A; Skin photosensitising agents and the role of reactive oxygen species in photoaging; JOURNAL OF PHOTOCHEMISTRY & PHOTOBIOLOGY, 1992, 14, 1-2, pages 105-124. This oxidative stress was evaluated in vitro by measuring of the level of released MDA (malonaldehyde) and of intracellular GSH (reduced glutathione) (Morliere P., Moisan A., Santus R., Huppe G., Mazière J. C., Dubertret L.: UV-A induced lipid peroxydation in cultured human fibroblasts. Biochim. Biophys. Acta, 1084, 3, pages 261-269 (1991)).
Expressed in keywords, the experiments were carried out as follows: • Inoculation of human fibroblasts within a growth medium (standard medium with foetal calf serum (FCS) • Incubation 3 days at 37° C., CO2=5% • Exchange of growth medium with balanced salt solution • Irradiation of fibroblasts by UV-A: 20 J/cm^2 (black light TFWN lamp) (A TFWN lamp is a certain type of marketed sunlamp well known to the skilled artisan) • Exchange of growth medium with standard medium without FCS but containing ingredient to be tested • Incubation 3 days at 37° C., CO2=5% • Recovery of supernatant medium for spectrophotometric determination of the malonaldialdehde (or MDA) rate • Cells number determined by evaluation of the levels of cellular proteins (Bradford's method) and the rate of cellular GSH was evaluated according to the method of Hissin

For the next series, the system named is human keratinocytes. Nature of the series: Cytophotoprotection of human keratinocytes against UV-B radiation. In kind it is cell-based. Particulars: for Cell number, % against control / Released LDH, % against control / Released PGE2, % against control: UVB. From the text:
UV-B irradiation (from 280 to 320 nm) of the human skin induces a cutaneous inflammation mainly by activation of an enzyme (phospholipase A2 or PLA2), which releases arachidonic acid from the cell membranes of the cells of the skin (V. A. De Leo, D. Hanson, I. B. Weinstein and L. C. Harber—Ultraviolet radiation stimulates the release of arachidonic acid from mammalian cells in culture—Photochemistry and Photobiology (1985) volume 41N°1 pages 51-56). Then other specific enzymes (so called cyclo-oxygenases) transform arachidonic acid in active components called prostaglandines (or PG) which are secreted out of the cells. The fixation of certain prostaglandins (PGE2) on specific skin receptors is followed by redness and swelling as after a sunburn. On cultured human cells, these UV-B effects on cell membranes are associated with a release in the supernatant medium of a cytoplasmic enzyme, the Lactate Dehydrogenase or LDH (B. Bonnekoh, B. Farkas, J. Geisel and G. Mahrle—Lactate dehydrogenase release as an indicator of dithranol-induced membrane injury in cultured human keratinocytes. Dermatological research (1990) volume 282, pages 325-331).
Expressed in keywords, the experiments were carried out as follows: • Inoculation of human keratinocytes within growth medium (standard medium with fetal calf serum (FCS) • Incubation 3 days at 37° C., CO2=5% • Exchange of growth medium with balanced salt solution containing ingredient to be tested • Irradiation of keratinocytes by UV-B: 50 mJ/cm^2 (DUKE GL40E lamp) (A DUKE GL40E lamp is a certain type of marketed sunlamp well known to the skilled artisan) • Incubation 1 day at 37° C., CO2=5% • Numeration of adherent cells after trypsination (trypsination is a process based on the use of the enzyme trypsine which is a protease allowing the retrieval of cell from the support in order to seed the cells into a bigger flask and therefore to expand the cell culture) • Recovery of supernatant medium for spectrophotometric determination of the activity of LDH, and PGE2 by ELISA method

In another series the target is elastase from pancreas (Sus scrofa, UniProt P00772). Nature of the series: Elastase inhibition, Elastin-Congo red as substrate. The class given is biochemical. The method, then: This test was carried out with an elastase from pancreas on Elastin labelled with Congo red. The time of incubation was 30 minutes at room temperature and the optical density of released Congo red was recorded after centrifugation at a wavelength of 520 nm. al-antitrypsine was used as positive reference.
elastase from pancreas, sequence (P00772 27-266): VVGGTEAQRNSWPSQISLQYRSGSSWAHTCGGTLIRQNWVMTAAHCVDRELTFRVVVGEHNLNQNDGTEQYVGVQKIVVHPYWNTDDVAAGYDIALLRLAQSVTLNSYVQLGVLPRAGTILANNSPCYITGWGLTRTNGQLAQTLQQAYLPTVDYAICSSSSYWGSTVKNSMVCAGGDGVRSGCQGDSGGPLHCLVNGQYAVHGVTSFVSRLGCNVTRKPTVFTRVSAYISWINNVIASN
The following table summarizes the results expressed as EC 50 in % w/v. (EC 50 in % w/v is the concentration in % w/v which reduces the enzymatic activity by 50%.)

For series [5], the target named is T1, human leucocyte elastase (HLE) (Homo sapiens, UniProt P08246).
T1 sequence (P08246 30-267): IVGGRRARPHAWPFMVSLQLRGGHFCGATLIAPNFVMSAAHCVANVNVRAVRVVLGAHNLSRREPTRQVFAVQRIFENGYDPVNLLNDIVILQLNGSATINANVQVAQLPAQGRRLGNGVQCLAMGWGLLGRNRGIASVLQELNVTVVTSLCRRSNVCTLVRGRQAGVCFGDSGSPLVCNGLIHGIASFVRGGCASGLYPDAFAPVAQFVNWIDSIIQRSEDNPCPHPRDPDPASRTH
To be noted: cited from earlier work.

The subject of series [6] is skin chronic inflammation. To be noted: in vivo; cited from earlier work.
In series [7] the target is T1, human leucocyte elastase (HLE). To be noted: read-out: HLE inhibitory activity IC(50); cited from earlier work.

Each structure is given as a SMILES string.

On to `CC1(C)CC[C@]2(CO)CC[C@]3(C)C(=CC[C@@H]4[C@@]5(C)CC[C@H](O)C(C)(C)[C@@H]5CC[C@]43C)[C@@H]2C1` [erythrodiol], for which, in series [1], the viability (usually a read-out of living cells in per cent, often relative to untreated cells) at 3 days, 0.0001 % is 104%; the viability at 3 days, 0.0003 % was determined as 105%; the viability at 3 days, 0.001 % came to 43%; the viability at 3 days, 0.003 % turned out to be 34%. Further, the “LD50 (% w/v)” value with human fibroblasts [2] (human fibroblasts, 3 days incubation) came out at 0.0009% w/v. Further, the “safe at concentrations up to” value in the series with human fibroblasts [2] (human, 3 days) is reported as “up to 0.0003%”. In addition, in the series on human fibroblasts [3] (0.00001% w/v), the ATP was 107%, the DNA is 96%, the GSH/proteins is 120% and the Proteins came to 100%. Also, in the series on human fibroblasts [3] (0.00003% w/v), the ATP came out at 99%, the DNA stood at 108%, the GSH/proteins is listed as 141% and the Proteins was 97%. In the series with human fibroblasts [3] (0.0001% w/v), this compound yielded an ATP of 66%, a DNA of 78%, a GSH/proteins of 101% and a Proteins of 91%. Further, in the series with human fibroblasts [3] (0.0003% w/v), the ATP stood at 73%, the DNA was found to be 59%, the GSH/proteins worked out at 88% and the Proteins is 83%. For the same compound, in the series with human fibroblasts [3] (only at a concentration of 0.00003%), the “amount of GSH synthesized by human fibroblasts” value was “modified”. Besides, in the series on human fibroblasts [4], the “protection of human fibroblasts from toxic UVA effects” value is reported as “moderately protected”. In the series with human fibroblasts [4] (UV-A 20 J/cm^2, dose 0.0001%), the “GSH/protein, % against control” value came out at 94%; the “Released MDA, % against control” value came to 81%; the “cell's protein, % against control” value was 139%. Also, in the series with human fibroblasts [4] (UV-A 20 J/cm^2, dose 0.0003%), the “GSH/protein, % against control” value is reported as 22%; the “Released MDA, % against control” value amounted to 70%; the “cell's protein, % against control” value is listed as 42%. Further, the “UV toxic effects on the number of viable cells (cell number and released LDH)” value with human keratinocytes is “not modified”. In the series with human keratinocytes (dose 0.00001%), the “Cell number, % against control” value turned out to be 21%; the “Released LDH, % against control” value was 135%; the “Released PGE2, % against control” value worked out at 135%. Moreover, in the series with human keratinocytes (dose 0.00003%), the “Cell number, % against control” value turned out to be 23%; the “Released LDH, % against control” value is 118%; the “Released PGE2, % against control” value is 164%. For the same compound, at elastase from pancreas, the “inhibition of proteases such as elastase” value was “good potential to inhibit”. The IC50 at elastase from pancreas (30 minutes at room temperature, Elastin-Congo red, read-out: Elastase EC 50 (concentration which reduces the enzymatic activity by 50%) (converted)) was 1810 µM. Moreover, the “interaction with the ursolic acid binding site of HLE” value in series [5] is “can also interact with this binding site”. The “activity on chronic dermal inflammation” value in series [6] is reported as “significantly effective”.
`C[C@H]1[C@H](C)CC[C@]2(C(=O)O)CC[C@]3(C)C(=CC[C@@H]4[C@@]5(C)CC[C@H](O)C(C)(C)[C@@H]5CC[C@]43C)[C@H]12` [ursolic acid]: the IC50 in [7] was 4.4 µM. Moreover, the Ki in [5] (hydrolysis of peptide substrates in phosphate-buffered saline, read-out: inhibition constant, HLE) was 4 to 6 µM. Moreover, the “activity on chronic dermal inflammation” value in [6] is listed as “significantly effective”.
